Measurements: ChEMBL document CHEMBL1201862, “PubChem BioAssay data set” (2004)
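Following 48 hours of exposure in 96-well plates, responses at five concentrations were used to interpolate endpoints linearly. GI50 marks 50% less growth.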 Activity calls are given as the source filed them. Cut-off read from the data, not from the text of the source: active = GI50 up to about 1.1 µM and inactive = higher.

Assays:
Test in all cases: NCI-60 cell line screen, 48 h
[1] = test system: 786-0
[2] = test system: A498
[3] = test system: A549
[4] = test system: ACHN
[5] = test system: COLO 205
[6] = test system: DLD-1
[7] = test system: DMS-114
[8] = test system: DMS-273
[9] = test system: HCC 2998
[10] = test system: HCT-116
[11] = test system: HCT-15
[12] = test system: HOP-18
[13] = test system: HOP-62
[14] = test system: HOP-92
[15] = test system: HT-29
[16] = test system: IGROV-1
[17] = test system: KM12
[18] = test system: LXFL 529
[19] = test system: M14
[20] = test system: M19-MEL
[21] = test system: MOLT-4
[22] = test system: Malme-3M
[23] = test system: NCI-H226
[24] = test system: NCI-H23
[25] = test system: NCI-H460
[26] = test system: NCI-H522
[27] = test system: OVCAR-3
[28] = test system: OVCAR-4
[29] = test system: OVCAR-5
[30] = test system: OVCAR-8
[31] = test system: RPMI-8226
[32] = test system: RXF 631
[33] = test system: SF-268
[34] = test system: SF-295
[35] = test system: SF-539
[36] = test system: SK-MEL-28
[37] = test system: SK-MEL-2
[38] = test system: SK-MEL-5
[39] = test system: SK-OV-3
[40] = test system: SN12C
[41] = test system: SNB-75
[42] = test system: SR
[43] = test system: SW-620
[44] = test system: TK-10
[45] = test system: U-251
[46] = test system: UACC-257
[47] = test system: UO-31
[48] = test system: CAKI-1
[49] = test system: CCRF-CEM
[50] = test system: EKVX
[51] = test system: HL-60
[52] = test system: K562
[53] = test system: KM-20L2
[54] = test system: RXF 393
[55] = test system: SNB-19
[56] = test system: SNB-78
[57] = test system: UACC-62

**Q.** For `O=[N+]([O-])c1cccc(C2=NOC3C4CCC(C4)C23)c1` (stereo not drawn), which GI50 [1] is on record?
**A.** Its GI50 is > 100 µM (inactive).

**Q.** And the GI50 [2]?
**A.** The GI50 was > 100 µM (inactive).

**Q.** And the GI50 [3]?
**A.** Its GI50 is > 100 µM (inactive).

**Q.** And the GI50 [4]?
**A.** Its GI50 is > 100 µM (inactive).

**Q.** What about the GI50 [5] of the same compound?
**A.** Its GI50 is > 100 µM (inactive).

**Q.** What about the GI50 [6] of the same compound?
**A.** Its GI50 is > 100 µM (inactive).

**Q.** And the GI50 [7]?
**A.** The GI50 was > 100 µM (inactive).

**Q.** And the GI50 [8]?
**A.** The GI50 was > 100 µM (inactive).

**Q.** What about the GI50 [9] of the same compound?
**A.** Its GI50 is > 100 µM (inactive).

**Q.** What about the GI50 [10] of the same compound?
**A.** The GI50 was > 100 µM (inactive).

**Q.** And the GI50 [11]?
**A.** The GI50 was greater than 100 µM.

**Q.** What about the GI50 [12] of the same compound?
**A.** The GI50 was > 100 µM (inactive).

**Q.** And the GI50 [13]?
**A.** The GI50 was > 100 µM (inactive).

**Q.** What about the GI50 [14] of the same compound?
**A.** The GI50 was > 100 µM (inactive).

**Q.** And the GI50 [15]?
**A.** Its GI50 is > 100 µM (inactive).

**Q.** And the GI50 [16]?
**A.** The GI50 was > 100 µM (inactive).

**Q.** And the GI50 [17]?
**A.** The GI50 was > 100 µM (inactive).

**Q.** And the GI50 [18]?
**A.** Its GI50 is > 100 µM (inactive).

**Q.** And the GI50 [19]?
**A.** Its GI50 is > 100 µM (inactive).

**Q.** And the GI50 [20]?
**A.** Its GI50 is > 100 µM (inactive).

**Q.** What about the GI50 [21] of the same compound?
**A.** Its GI50 is > 100 µM (inactive).

**Q.** And the GI50 [22]?
**A.** The GI50 was > 100 µM (inactive).

**Q.** What about the GI50 [23] of the same compound?
**A.** The GI50 was > 100 µM (inactive).

**Q.** What about the GI50 [24] of the same compound?
**A.** The GI50 was > 100 µM (inactive).

**Q.** And the GI50 [25]?
**A.** Its GI50 is > 100 µM (inactive).

**Q.** And the GI50 [26]?
**A.** The GI50 was > 100 µM (inactive).

**Q.** And the GI50 [27]?
**A.** Its GI50 is > 100 µM (inactive).

**Q.** What about the GI50 [28] of the same compound?
**A.** The GI50 was > 100 µM (inactive).

**Q.** And the GI50 [29]?
**A.** Its GI50 is > 100 µM (inactive).

**Q.** And the GI50 [30]?
**A.** The GI50 was > 100 µM (inactive).

**Q.** And the GI50 [31]?
**A.** The GI50 was > 100 µM (inactive).

**Q.** What about the GI50 [32] of the same compound?
**A.** The GI50 was > 100 µM (inactive).

**Q.** What about the GI50 [33] of the same compound?
**A.** Its GI50 is > 100 µM (inactive).

**Q.** What about the GI50 [34] of the same compound?
**A.** Its GI50 is > 100 µM (inactive).

**Q.** What about the GI50 [35] of the same compound?
**A.** The GI50 was > 100 µM (inactive).

**Q.** And the GI50 [36]?
**A.** Its GI50 is > 100 µM (inactive).

**Q.** What about the GI50 [37] of the same compound?
**A.** The GI50 was > 100 µM (inactive).

**Q.** And the GI50 [38]?
**A.** Its GI50 is > 100 µM (inactive).

**Q.** What about the GI50 [39] of the same compound?
**A.** The GI50 was > 100 µM (inactive).

**Q.** What about the GI50 [40] of the same compound?
**A.** The GI50 was > 100 µM (inactive).

**Q.** And the GI50 [41]?
**A.** Its GI50 is > 100 µM (inactive).

**Q.** What about the GI50 [42] of the same compound?
**A.** The GI50 was > 100 µM (inactive).

**Q.** And the GI50 [43]?
**A.** The GI50 was 22.3 µM (inactive).

**Q.** And the GI50 [44]?
**A.** Its GI50 is > 100 µM (inactive).

**Q.** What about the GI50 [45] of the same compound?
**A.** Its GI50 is > 100 µM (inactive).

**Q.** And the GI50 [46]?
**A.** Its GI50 is > 100 µM (inactive).

**Q.** And the GI50 [47]?
**A.** Its GI50 is > 100 µM (inactive).

**Q.** For `CC(C)[C@@H](C)CC[C@@H](C)C1CC=C2[C@@H]3CCC4C[C@@H](O[Si](C)(C)C(C)(C)C)CC[C@]4(C)C3CC[C@@]21C` (stereo partly drawn), which GI50 [1] is on record?
**A.** Its GI50 is > 100 µM (inactive).

**Q.** What about the GI50 [2] of the same compound?
**A.** Its GI50 is > 100 µM (inactive).

**Q.** What about the GI50 [3] of the same compound?
**A.** Its GI50 is > 100 µM (inactive).

**Q.** And the GI50 [4]?
**A.** Its GI50 is > 100 µM (inactive).

**Q.** What about the GI50 [48] of the same compound?
**A.** The GI50 was > 100 µM (inactive).

**Q.** And the GI50 [49]?
**A.** The GI50 was > 100 µM (inactive).

**Q.** What about the GI50 [5] of the same compound?
**A.** Its GI50 is > 100 µM (inactive).

**Q.** What about the GI50 [7] of the same compound?
**A.** Its GI50 is > 100 µM (inactive).

**Q.** What about the GI50 [8] of the same compound?
**A.** The GI50 was > 100 µM (inactive).

**Q.** What about the GI50 [50] of the same compound?
**A.** The GI50 was > 100 µM (inactive).

**Q.** What about the GI50 [9] of the same compound?
**A.** Its GI50 is > 100 µM (inactive).

**Q.** And the GI50 [10]?
**A.** Its GI50 is > 100 µM (inactive).

**Q.** What about the GI50 [11] of the same compound?
**A.** The GI50 was greater than 100 µM.

**Q.** What about the GI50 [51] of the same compound?
**A.** Its GI50 is > 100 µM (inactive).

**Q.** What about the GI50 [12] of the same compound?
**A.** Its GI50 is > 100 µM (inactive).

**Q.** What about the GI50 [13] of the same compound?
**A.** Its GI50 is > 100 µM (inactive).

**Q.** And the GI50 [16]?
**A.** The GI50 was > 100 µM (inactive).

**Q.** And the GI50 [52]?
**A.** The GI50 was > 100 µM (inactive).

**Q.** And the GI50 [53]?
**A.** The GI50 was > 100 µM (inactive).

**Q.** What about the GI50 [17] of the same compound?
**A.** The GI50 was > 100 µM (inactive).

**Q.** And the GI50 [18]?
**A.** The GI50 was > 100 µM (inactive).

**Q.** And the GI50 [19]?
**A.** Its GI50 is > 100 µM (inactive).

**Q.** What about the GI50 [20] of the same compound?
**A.** The GI50 was > 100 µM (inactive).

**Q.** What about the GI50 [21] of the same compound?
**A.** Its GI50 is > 100 µM (inactive).

**Q.** What about the GI50 [22] of the same compound?
**A.** The GI50 was > 100 µM (inactive).

**Q.** And the GI50 [23]?
**A.** Its GI50 is > 100 µM (inactive).

**Q.** What about the GI50 [25] of the same compound?
**A.** Its GI50 is > 100 µM (inactive).

**Q.** And the GI50 [26]?
**A.** The GI50 was > 100 µM (inactive).

**Q.** And the GI50 [27]?
**A.** The GI50 was > 100 µM (inactive).

**Q.** And the GI50 [28]?
**A.** Its GI50 is > 100 µM (inactive).

**Q.** What about the GI50 [30] of the same compound?
**A.** The GI50 was > 100 µM (inactive).

**Q.** What about the GI50 [31] of the same compound?
**A.** The GI50 was > 100 µM (inactive).

**Q.** And the GI50 [54]?
**A.** The GI50 was > 100 µM (inactive).

**Q.** And the GI50 [32]?
**A.** The GI50 was > 100 µM (inactive).

**Q.** What about the GI50 [33] of the same compound?
**A.** The GI50 was > 100 µM (inactive).

**Q.** And the GI50 [35]?
**A.** The GI50 was > 100 µM (inactive).

**Q.** And the GI50 [36]?
**A.** Its GI50 is > 100 µM (inactive).

**Q.** And the GI50 [37]?
**A.** Its GI50 is > 100 µM (inactive).

**Q.** And the GI50 [38]?
**A.** The GI50 was > 100 µM (inactive).

**Q.** And the GI50 [39]?
**A.** The GI50 was > 100 µM (inactive).

**Q.** What about the GI50 [40] of the same compound?
**A.** The GI50 was > 100 µM (inactive).

**Q.** And the GI50 [55]?
**A.** The GI50 was > 100 µM (inactive).

**Q.** What about the GI50 [41] of the same compound?
**A.** Its GI50 is > 100 µM (inactive).

**Q.** And the GI50 [56]?
**A.** The GI50 was > 100 µM (inactive).

**Q.** And the GI50 [42]?
**A.** Its GI50 is > 100 µM (inactive).

**Q.** What about the GI50 [43] of the same compound?
**A.** Its GI50 is > 100 µM (inactive).

**Q.** What about the GI50 [44] of the same compound?
**A.** Its GI50 is > 100 µM (inactive).

**Q.** What about the GI50 [45] of the same compound?
**A.** Its GI50 is > 100 µM (inactive).

**Q.** What about the GI50 [46] of the same compound?
**A.** The GI50 was > 100 µM (inactive).

**Q.** And the GI50 [57]?
**A.** Its GI50 is > 100 µM (inactive).

**Q.** And the GI50 [47]?
**A.** Its GI50 is > 100 µM (inactive).
